Assay results from US6270780A, “Cosmetic compositions containing resveratrol” (Chesebrough-Pond's USA Co., division of Conopco, priority 1998, dated 2001).
Read-outs that look alike come from different tables or passages of the source.

Tests used:
[1] = Cell viability of B16 cells by neutral red dye uptake; type: cell-based; settings: mouse, b16 f1 cells
Protocol: In order to ensure that melanin inhibition was not simply due to cell killing, cell viability was assessed by neutral red dye uptake. After the removal of media, 200 μL of pre-warmed medium containing 25 μg/ml neutral red dye was added to each well and incubated for 3 hours. Cells were washed 2× with PBS. The dye was extracted by adding […] of 50 H2O: 49 ethanol: 1 acetic acid and then gently shaken at room temperature for 20 minutes. The dye was quantified by reading the absorbance at 530 nm. Only viable cells are expected to take up the dye and the absorbance is directly proportional to the number of viable cells surviving the treatment.
For each treatment, the average of four replicate readings was calculated and expressed as percent of the average for the untreated control.

[2] = system: human promyelocytic leukemia cells; settings: Jang et al., Science 275: 218-220, 1997; cited from earlier work
[3] = system: Normal human keratinocytes; assay: 3H-thymidine incorporation (DNA synthesis) / proliferation of keratinocytes; type: cell-based
Source text: The incorporation of ^3 H-thymidine by cultured cells was used as an assay of cell proliferation (both for ZR75 cells and for keratinocytes). Thymidine is one of four deoxynucleosides which are the monomeric units of DNA. Prior to cell division of a somatic cell, the complete genome of the cell undergoing cell division is replicated. This involves large scale DNA synthesis by the cell and enables both daughter cells to receive identical copies of the genetic material. When ^3 H-thymidine is included in the culture media of cells which are synthesizing DNA in preparation for cell division then the labeled thymidine is incorporated into the newly synthesized DNA. The extent of incorporation of ^3 H-thymidine into a population of cells is proportional to the rate of DNA synthesis by this population of cells and therefore an indication of their cellular proliferation.
1. Normal human keratinocytes isolated from neonatal foreskins by trypsin treatment were grown in Dulbecco's modified Eagle's medium (DME)/5% fetal calf serum in the presence of mitomycin C treated 3T3 mouse fibroblasts for establishing dividing keratinocyte colonies. Keratinocytes were grown under the above condition until their third passage.
2. For the experiments, third passage keratinocytes were plated into a serum-free keratinocyte growth medium (KGM; obtained from Clonetics, San Diego, Calif.) containing 0.09 mM calcium. About 30,000 cells were plated into each well of 6 well cell culture plates and grown for 5 days, until the cells reach about 40% confluence.
3. Medium was changed to fresh medium (KBM; obtained from Clonetics) and resveratrol at various concentrations as indicated in Table 2 was added to the medium from a DMSO (Dimethylsulfoxide) stock solution. The final DMSO concentration in the cultures was 0.1%. Control cultures received no resveratrol but were dosed with 0.1% DMSO. Each concentration was tested in three separate wells. After four hours, 1 μCi of ^3 H-thymidine (Amersham Corp., Sp activity 40 Ci/mmol) was added to 1 ml of medium in each well. The cells were incubated for 2 hours. The amount of ^3 H-thymidine associated with the cellular DNA of keratinocytes was assessed as described below.
4. The medium was aspirated, and the wells washed with 1 ml PBS. The DNA and proteins of the cells in the plate were then precipitated by adding 1 ml of ice-cold 10% TCA. The plates were left on ice for 30 minutes to complete the precipitation process. TCA was then aspirated and each well was then washed 4 times with 5% TCA. The cells in the wells were dissolved in 0.5 ml of […] sodium hydroxide. 200 μl was then transferred to a scintillation vial for assessing thymidine incorporation and 25 μl was used for a protein assay using BCA protein assay reagent as described below. 5 ml of a scintillation fluid (Scintiverse) was added to the rest of the solution in the vial, and the vials were counted in a scintillation counter to determine the amount of radioactivity in each vial.
BCA (Bicinchoninic Acid)--Protein Assay
25 μl of cell suspension were placed in a 96 well plate. Standards of BSA (bovine serum albumin) in 0.1N Sodium Hydroxide were also pipetted in triplicate in the same 96 well plate. Pierce BCA protein assay reagent was added (200 μl/well) and plate was incubated for 2 hours at room temperature. Absorbance was read at a wavelength of 570 nm on a Dynatech MR7000 plate reader.
The DNA synthesis rate was then calculated as cpm ^3 H-thymidine incorporated into total cellular DNA/μg of cell protein for each individual well. Mean and standard deviation for each group were also calculated. These numbers were also expressed as percent of control wells. Each data point is expressed as mean of triplicate wells±standard deviation.
The results that were obtained are summarized in Table 2. p values of less than […] were considered to indicate statistical significance.
Example 2 was repeated at various additional concentrations of resveratrol.

For `Oc1ccc(/C=C/c2cc(O)cc(O)c2)cc1` [Resveratrol, 3,4'5-stilbenetriol], the viability at 72 h, 10 µM ([1]; 10 μM) was 94.6%, the viability at 72 h, 25 µM ([1]; 25 μM) was 86.8% and the viability at 72 h, 50 µM ([1]; 50 μM) was 69.2%. The viability at 72 h, 100 µM ([1]; 100 μM) was 1.8%, the “differentiation of human promyelocytic leukemia cells” value [2] was “induce differentiation of human promyelocytic leukemia cells” and the inhibition at 50 µM ([3]; Homo sapiens, Keratinocyte, Table 2 Experiment 1, 50 μM) was 98%. The inhibition at 0.78 µM ([3]; Homo sapiens, Keratinocyte, Table 2 Experiment 2, 0.78 μM) was 33%, the inhibition at 1.56 µM ([3]; Homo sapiens, Keratinocyte, Table 2 Experiment 2, 1.56 μM, read-out: % inhibition (DNA synthesis)) was 48% and the inhibition at 3.12 µM ([3]; Homo sapiens, Keratinocyte, Table 2 Experiment 2, 3.12 μM) was 70%. It also gave an inhibition at 6.25 µM ([3]; Homo sapiens, Keratinocyte, Table 2 Experiment 2, 6.25 μM) of 86%, an inhibition at 12.5 µM ([3]; Homo sapiens, Keratinocyte, Table 2 Experiment 2, 12.5 μM) of 94% and an inhibition at 25 µM ([3]; Homo sapiens, Keratinocyte, Table 2 Experiment 2, 25 μM) of 97%. For the same compound, the inhibition at 50 µM ([3]; Homo sapiens, Keratinocyte, Table 2 Experiment 2, 50 μM) was 97%, the inhibition at 0.1 µM ([3]; Homo sapiens, Keratinocyte, Table 3, 0.1 μM) was 5% and the inhibition at 0.2 µM ([3]; Homo sapiens, Keratinocyte, Table 3, 0.2 μM) was 12%. The inhibition at 0.3 µM ([3]; Homo sapiens, Keratinocyte, Table 3, 0.3 μM) was 7%, the inhibition at 0.4 µM ([3]; Homo sapiens, Keratinocyte, Table 3, 0.4 μM) was 14% and the inhibition at 0.6 µM ([3]; Homo sapiens, Keratinocyte, Table 3, 0.6 μM) was 6%. For the same compound, the inhibition at 0.8 µM ([3]; Homo sapiens, Keratinocyte, Table 3, 0.8 μM) was 30%, the inhibition at 1 µM ([3]; Homo sapiens, Keratinocyte, Table 3, 1.0 μM) was 40% and the inhibition at 2 µM ([3]; Homo sapiens, Keratinocyte, Table 3, 2.0 μM) was 59%. The inhibition at 1.56 µM ([3]; Homo sapiens, Keratinocyte, 1.56 μM, read-out: reduced keratinocyte proliferation) was roughly 50%, the “DNA synthesis (cpm/μg protein)” value ([3]; Table 2 Experiment 1, 50 μM) was 0.62 ± 0.09 cpm/μg protein and the “DNA synthesis (cpm/μg protein)” value ([3]; Table 2 Experiment 2, 0.78 μM) was 11.57 ± 1.7 cpm/μg protein. The “DNA synthesis (cpm/μg protein)” value ([3]; Table 2 Experiment 2, 1.56 μM) was 8.89 ± 1.12 cpm/μg protein, the “DNA synthesis (cpm/μg protein)” value ([3]; Table 2 Experiment 2, 3.12 μM) was 5.11 ± 0.27 cpm/μg protein and the “DNA synthesis (cpm/μg protein)” value ([3]; Table 2 Experiment 2, 6.25 μM) was 2.45 ± 0.56 cpm/μg protein. The “DNA synthesis (cpm/μg protein)” value ([3]; Table 2 Experiment 2, 12.5 μM) was 1.07 ± 0.11 cpm/μg protein, the “DNA synthesis (cpm/μg protein)” value ([3]; Table 2 Experiment 2, 25 μM) was 0.58 ± 0.05 cpm/μg protein and the “DNA synthesis (cpm/μg protein)” value ([3]; Table 2 Experiment 2, 50 μM) was 0.44 ± 0.12 cpm/μg protein. The “DNA synthesis (cpm/μg protein)” value ([3]; Table 3, 0.1 μM) was 60.4 ± 4.1 cpm/μg protein, the “DNA synthesis (cpm/μg protein)” value ([3]; Table 3, 0.2 μM) was 56.3 ± 3.0 cpm/μg protein and the “DNA synthesis (cpm/μg protein)” value ([3]; Table 3, 0.3 μM) was 58.8 ± 0.4 cpm/μg protein. For the same compound, the “DNA synthesis (cpm/μg protein)” value ([3]; Table 3, 0.4 μM) was 54.2 ± 1.2 cpm/μg protein, the “DNA synthesis (cpm/μg protein)” value ([3]; Table 3, 0.6 μM) was 59.3 ± 5.5 cpm/μg protein and the “DNA synthesis (cpm/μg protein)” value ([3]; Table 3, 0.8 μM) was 44.4 ± 2.6 cpm/μg protein. For the same compound, the “DNA synthesis (cpm/μg protein)” value ([3]; Table 3, 1.0 μM) was 37.7 ± 4.0 cpm/μg protein, the “DNA synthesis (cpm/μg protein)” value ([3]; Table 3, 2.0 μM) was 25.7 ± 2.4 cpm/μg protein and the “inhibition of DNA synthesis” value ([3]; both experiments, 50 μM) was “inhibited DNA synthesis completely”. For the same compound, the “DNA synthesis of keratinocytes” value ([3]; concentrations as low as 1.56 μM) was “decreased DNA synthesis of keratinocytes significantly” and the reducing keratinocyte proliferation ([3]; concentrations lower than 0.8 μm (0.000018 wt. %)) was “not effective at reducing keratinocyte proliferation”.
